Paper PMC6629785, “Synthesis and Pharmacological Evaluation of a Novel Peptide Based on Anemonia sulcata BDS-I Toxin as a New KV3.4 Inhibitor Exerting a Neuroprotective Effect Against Amyloid-β Peptide” (Frontiers in Chemistry, 2019)
Ends that are not written are not given here.

Molecular target: T1, KV3.4 channels (Homo sapiens, UniProt Q03721)
T1 construct: expressed in transfected cells; host or cells: CHO cells, transient transfection with Lipofectamine 2000; cDNAs provided by Professor Goldstein, University of Chicago
T1 sequence (Q03721 1-635): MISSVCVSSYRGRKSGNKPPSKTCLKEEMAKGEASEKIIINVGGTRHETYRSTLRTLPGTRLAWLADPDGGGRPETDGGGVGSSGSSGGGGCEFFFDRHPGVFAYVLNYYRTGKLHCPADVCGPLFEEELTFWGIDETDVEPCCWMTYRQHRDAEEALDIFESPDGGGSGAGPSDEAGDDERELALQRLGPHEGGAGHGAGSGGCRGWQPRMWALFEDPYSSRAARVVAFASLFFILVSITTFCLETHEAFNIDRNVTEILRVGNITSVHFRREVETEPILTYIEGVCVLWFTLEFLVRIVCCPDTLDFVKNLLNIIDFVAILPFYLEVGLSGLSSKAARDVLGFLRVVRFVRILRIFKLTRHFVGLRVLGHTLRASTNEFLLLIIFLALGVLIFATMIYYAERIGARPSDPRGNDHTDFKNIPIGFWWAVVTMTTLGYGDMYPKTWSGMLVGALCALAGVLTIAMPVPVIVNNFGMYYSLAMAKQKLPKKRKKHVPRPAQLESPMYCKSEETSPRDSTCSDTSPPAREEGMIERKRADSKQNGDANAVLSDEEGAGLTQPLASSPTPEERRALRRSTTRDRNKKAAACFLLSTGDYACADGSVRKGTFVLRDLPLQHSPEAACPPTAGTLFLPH
T1 sequence (Q9Y6H6 1-103 partner): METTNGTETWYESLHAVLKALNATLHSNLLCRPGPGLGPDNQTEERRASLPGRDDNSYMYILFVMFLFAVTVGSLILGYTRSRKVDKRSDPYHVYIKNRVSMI
Test: Whole-cell patch clamp of Kv3.4 currents in CHO cells transiently transfected with Kv3.4/MiRP2
Type: cell-based
Conditions: for percentage of inhibition of Kv3.4 currents: acute application in extracellular solution, peak of depolarizing pulse +60 mV, [(C0-C1)/C0] x 100, mean of 6 to 10 cells, three sessions
Description: KV3.4 and MiRP2 channel subunits were expressed in Chinese hamster ovary (CHO) cells by transient transfection. CHO cells were grown in 100 mm plastic Petri dishes in Dulbecco's Modified Eagle Medium containing 10% fetal bovine serum (FBS), non-essential amino acids (0.1 mm), penicillin (50 U/ml), and streptomycin (50 μg/ml) in a humidified atmosphere at 37°C with 5% CO2 (Miceli et al., [2015]). KV3.4 and MiRP2 cDNAs were kindly provided by the Professor Goldstein of the Department of Pediatrics and Institute for Molecular Pediatric Sciences, University of Chicago, USA. For electrophysiological experiments, cells were seeded on glass cover-slips (Glaswarenfabrik Karl Hecht KG, Sondheim, Germany) coated with poly-L-lysine (50 μg/mL) and transfected the next day with the appropriate cDNAs using Lipofectamine 2000 according to guidelines for transfection. We performed electrophysiological experiments 48 h after transfection.
Currents from CHO cells were recorded at room temperature 1-2 days after transfection. The extracellular solution contained the following (in mM): 138 NaCl, 5.4 KCl, 2 CaCl2, 1 MgCl2, 10 glucose and 10 HEPES, adjusted pH 7.4 with NaOH. The pipette solution contained (in mM) the following: 140 KCl, 2 MgCl2, 10 EGTA, 10 HEPES, 5 Mg-ATP, adjusted pH 7.4 with KOH (Miceli et al., [2015]). KV3.4 currents were measured by applying voltage steps from −100 mV to +60 mV from a holding potential of −80 mV (Abbott et al., [2001]). Moreover, the total outward K^+ currents were recorded in NGF-differentiated PC-12 cells using the extracellular solution contained the following (in mM): 150 NaCl, 5.4 KCl, 3 CaCl2, 1 MgCl2, 10 HEPES, adjusted pH 7.4 with NaOH. The pipette solution contained the following (in mM): 140 KCl, 2 MgCl2, 10 HEPES, 10 glucose, 10 EGTA, and 1 Mg-ATP adjusted at pH 7.4 with KOH (Diochot et al., [1998]). All experiments were performed in the presence of 50 nM tetrodotoxin (TTX) and 10 μ M nimodipine in the extracellular solution. To discriminate K^+ current components appropriate electrophysiological protocols were used (Pannaccione et al., [2007]). Steady-state activation and inactivation properties were measured by using appropriate protocols (Pannaccione et al., [2005]). Capacitive currents were elicited by 5-mV depolarizing pulses from −80 mV and acquired at a sampling rate of 50 kHz. The capacitance of the membrane was calculated according to the following equation: Cm = τc·Io/ΔEm (1-I∞/Io), where Cm is membrane capacitance, τc is the time constant of the membrane capacitance, Io is the maximum capacitance current value, ΔEm is the amplitude of the voltage step, and I∞ is the amplitude of the steady-state current. K^+ currents were recorded by patch-clamp technique in CHO and NGF-differentiated PC-12 cells using a commercially available amplifier (Axopatch 200B, Molecular Devices) and Digidata 1322A interface (Molecular Devices, USA). The whole-cell configuration of the patch-clamp technique was adopted using glass micropipettes with a resistance of 2.5-5.0 MΩ. Data were acquired and analyzed using the pClamp software (version 9, Molecular Devices).
For the acute treatment, each peptide has been added in the extracellular solution. For each cell, we first recorded K^+ currents as previously described, in the absence of peptides. After that, we switched from the extracellular solution without BDS-I peptides to the extracellular solution containing the BDS-I peptide. In these conditions, we recorded K^+ currents until the steady-state was reached. This protocol has been performed to test the effect on KV3.4 currents of each BDS-I fragment as well as of BDS-I[1-8scr].
To identify the smallest BDS-I amino acid sequence able to block Kv3.4 activity, we evaluated the effect of the newly synthesized BDS-I fragments in CHO cells transiently transfected with Kv3.4/MiRP2, by patch clamp technique in whole cell configuration. […]

[1] = peptide 100 nM, CHO cells transfected with Kv3.4/MiRP2

Substance	ability to inhibit Kv3.4 currents (in words) (peptide 100 nM, acute application, CHO cells transfected with Kv3.4/MiRP2, whole-cell patch clamp)	effect on steady-state parameters for activation and inactivation of Kv3.4 currents (100 nM, Boltzmann fit)	time of peptide exposure at which steady-state of inhibition was reached (100 nM, currents at peak of repetitive (20 sec) depolarizing pulses (+60 mV)) [s]	voltage dependence of Kv3.4 current inhibition (I-V relationship) (100 nM, peak current before and during application, pulses from +60 to −100 mV)	IC50 (CHO cells transiently transfected with KV3.4/MiRP2, inhibitory dose-response curve, % of inhibition normalized to controls) [nM]	percentage of inhibition of Kv3.4 currents [1]
H-GSAFAPAA-OH [BDS-I[1-8scr]]	not able to modify KV3.4 activity					
AAPAFASG [BDS-I[1-8]]		did not modify	150	not voltage-dependent	75	more than 80%
blood depressing substance-I [BDS-I]						~ 60%
